{"source": "patent US7598028B2", "about": "“Compositions and methods for detecting and treating prostate disorders” (The Regents of the University of Michigan, priority 2006, dated 2009)", "type_in_all_cases": "cell-based, human", "key": {"[1]": {"system": "N1 prostate fibroblast cells", "assay": "Proliferation assay, add back, N1 fibroblasts", "conditions": "add back of exogenous chemokine, 96 hours", "text": "FIG. 6C describes how CXCL1, CXCL5, CXCL6, and CXCL12 stimulate N15C6 prostate epithelial cell proliferation, N1 prostate fibroblast cell proliferation, and LNCaP prostate epithelial cell proliferation compared to serum-free (SF HIE) media alone. “Add back” assays were next performed to determine whether the addition of exogenous CXCL1, CXCL5, CXCL6, and CXCL12 to defined, serum-free media induced […] or LNCaP prostate epithelial or N1 fibroblast cell proliferation. For these and all experiments utilizing N15C6 and LNCaP cells, the N15C6 and N1 cells were used between passage 35-45, and LNCaP cells between passages 25-35, for consistency. All recombinant CXC proteins were obtained from R&D systems (e.g., CXCL1, #275-GR, CXCL5, #254-X; CXCL6, #333-GC, and SDF1 alpha/CXCL12, #350-NS). Cells were plated at 50,000 cells/well in triplicate, treated for 96 hours, and counted. […] Moreover, the concentrations for CXCL1, CXCL5, CXCL6 and CXCL12 observed to be growth-stimulatory for prostate epithelial cells were similar to those secreted into the media by older prostate stromal fibroblasts (see, e.g., FIGS. 6A and 6B)."}, "[2]": {"system": "22Rv1 prostate epithelial cells", "assay": "Proliferation assay, 22Rv1", "conditions": "0.001-1 nM CXCL5, p<0.05", "method": "(§1) Proliferation Assays. Cellular proliferation was assessed after plating cells at 50,000 cell/well in triplicate in six well plates and counting cells after 24 and 96 hours of incubation as described previously (see, e.g., Begley L, et al., Genes Chromosomes Cancer. 2006 February; 45(2): 136-46; herein incorporated by reference in its entirety). To assess the effects of exogenous CXCL5 on cellular proliferation, recombinant human CXCL5 (R&D Systems, 254-X) was added at the desired concentration in 2 ml SF media (or 2 ml SF media alone for control) to each well. The cells were re-fed at 24 hours growth and counted at 24 and 96 hours growth. Cell counts were normalized to 50,000 cells at 24 hours to account for any plating discrepancies. Averages and standard deviations of cell number were calculated for each time point under each media condition. For the antibody blockade experiments, 10,000 cells per well were plated in triplicate in 24 well dishes and preincubated with mouse anti-human CXCR2 (Biosource AHR1532X) or mouse antihuman CXCR4 (BD Pharmingen 555971) at 1 ug/ml for 1 hour prior to CXCL5 addition. Cells were maintained in media containing appropriate antibodies for the entirety of the experiment and were counted at 24 and 96 hours as above."}, "[3]": {"system": "PC3 prostate epithelial cells", "assay": "Proliferation assay, PC3", "conditions": "0.001-1 nM CXCL5, p<0.05", "method": "as §1"}, "[4]": {"system": "PC3 prostate cancer cells", "assay": "Matrigel invasion assay, PC3", "conditions": "20 nM chemokine", "method": "Invasion Assays. Ability to invade through synthetic basement membrane was measured by plating 15,000 cells/well onto control or Matrigel-coated membranes in duplicate using 24-well BD Matrigel Invasion Chambers (Becton-Dickinson). Cells were plated in complete media and left untreated or pre-treated with 1 ug/ml anti-CXCR2 (Biosource AHR1532X) or anti-CXCR4 (BD Pharmingen 555971) for 2 hours, then exposed to complete media only or 20 nM CXCL5 as a chemo-attractant added to the companion plate. After 24 hours of incubation, the upper surface of the membranes were ‘scrubbed’ to remove non-invasive cells, and the cells that had invaded through to the lower surface of the Matrigel-coated membranes or to the bottom of the companion plate were fixed, stained, and counted. The number of invaded cells was calculated as the average number of cells present on the lower surface of the Matrigel-coated membrane and the companion plate counted over four low power (10× objective) microscopic fields per membrane over both wells per experimental condition. […]"}, "STAT3 [5]": {"system": "STAT3", "assay": "Western blot, STAT3 phosphorylation in N15C6 cells", "conditions": "10 pM, 100 pM or 1 nM CXCL5", "method": "(§2) Western Blot and Protein Analysis. Cells were lysed, proteins resolved by electrophoresis, and electroblotting was carried out as described previously except that 20 ug protein was electrophoresed per gel lane for N15C6 cells and 100 ug protein for LNCaP cells (see, e.g., Begley L, et al., Aging Cell. 2005 December; 4(6):291-8; Begley L A, et al., J Biol. Chem. 2007 Sep. 14; 282(37):26767-74; each herein incorporated by reference in their entireties). Proteins were detected using antibodies against phospho-ERK½ (Cell Signaling #9101), total ERK½ (Cell Signaling, #9102), phospho-p65, (Rockland #100-401-264), total p65 (Rockland #100-4165), STAT3 (9139), phospho-STAT3 (9138), beta-actin (Santa Cruz #sc-1615), or tubulin (Upstate, #DM1A) in conjunction with an ECL detection system. Secondary antibodies included goat anti-rabbit (Cell Signaling, #7074) and goat anti-mouse (Santa Cruz, #SC-2005), and both were used at a 1:5000 concentration. Immunoblots shown are representative of triplicate experiments. Densitometric quantitation of immunoblot films was accomplished by scanning the original films and converting the .tiff files to grayscale. Images were inverted, and mean band intensities were measured using ImageJ (www, followed by, .nih.gov). The mean intensity of adjacent background was also measured for each band and subtracted from band intensity."}, "STAT3 [6]": {"system": "STAT3", "assay": "Western blot, STAT3 phosphorylation in LNCaP cells", "conditions": "sub-nanomolar or nanomolar levels of CXCL5", "method": "as §2"}}, "note": "“Also recorded” adds a separate entry of the source."}
{"substance": "CXCL5: recombinant human CXCL5 (R&D Systems, 254-X), CXC-type chemokine", "values": [{"measurement": "cell proliferation compared to serum-free (SF HIE) media alone", "setting": "[1]", "result": "stimulate"}, {"measurement": "proliferation versus SF media alone", "setting": "[2]", "result": "significantly higher"}, {"measurement": "proliferation versus SF media alone", "setting": "[3]", "result": "significantly higher"}, {"measurement": "invasion through Matrigel versus control media / vehicle", "setting": "[4]", "result": "invaded; also recorded: significantly more"}, {"measurement": "STAT3 phosphorylation", "setting": "STAT3 [5]", "result": "rapidly and transiently phosphorylated"}, {"measurement": "activation of STAT3", "setting": "STAT3 [6]", "result": "not observed"}]}
